Data from patent US20250320205A1, “STAT6 DEGRADERS” (Gilead Sciences, Inc., priority 2024, published 2025).

Experiments:
STAT6 = target: T1, STAT6 (Homo sapiens, UniProt P42226); test: STAT6 Degrader Assay (HiBiT based, HeLa LgBiT clone 4.14 cells); type: cell-based; settings: for DC50: geometric mean across assay runs and compound batches, DC50 provided for test compounds with >80% Emax, read-out: STAT6 degradation DC50
T1 construct: These cells express endogenous STAT6; host or cells: HeLa LgBiT clone 4.14 (CRISPR knock-in of HiBiT into the endogenous STAT6 gene)
T1 sequence (P42226 1-847): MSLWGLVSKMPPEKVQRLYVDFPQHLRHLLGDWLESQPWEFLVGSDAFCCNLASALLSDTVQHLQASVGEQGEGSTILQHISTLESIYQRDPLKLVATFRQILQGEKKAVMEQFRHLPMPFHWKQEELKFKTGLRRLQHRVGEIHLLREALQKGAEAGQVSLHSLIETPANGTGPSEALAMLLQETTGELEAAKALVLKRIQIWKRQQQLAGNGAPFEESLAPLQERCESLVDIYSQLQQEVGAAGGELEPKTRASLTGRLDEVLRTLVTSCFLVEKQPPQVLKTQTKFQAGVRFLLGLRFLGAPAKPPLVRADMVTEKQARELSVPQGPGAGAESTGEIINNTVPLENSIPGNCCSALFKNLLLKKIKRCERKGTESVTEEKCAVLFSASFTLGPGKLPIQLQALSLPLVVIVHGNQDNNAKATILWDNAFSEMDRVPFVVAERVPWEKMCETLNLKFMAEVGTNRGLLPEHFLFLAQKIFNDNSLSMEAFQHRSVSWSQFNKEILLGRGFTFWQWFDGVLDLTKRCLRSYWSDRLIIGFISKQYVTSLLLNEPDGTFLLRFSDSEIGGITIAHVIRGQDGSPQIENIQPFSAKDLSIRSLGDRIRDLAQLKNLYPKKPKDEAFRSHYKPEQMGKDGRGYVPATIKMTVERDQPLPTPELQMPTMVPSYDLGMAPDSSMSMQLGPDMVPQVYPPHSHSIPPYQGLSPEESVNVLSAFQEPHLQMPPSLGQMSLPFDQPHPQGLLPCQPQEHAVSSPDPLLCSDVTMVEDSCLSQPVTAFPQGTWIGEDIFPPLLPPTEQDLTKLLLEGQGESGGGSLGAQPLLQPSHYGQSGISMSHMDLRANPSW
In short: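 DC50 (nM) comes from NanoBiT luminescence of HiBiT-knock-in STAT6 in HeLa LgBiT clone 4.14 cells, treated 4-24 h at 37° C. Luminescence reflects non-degraded STAT6, with 50 μM terfenadine wells taken as full degradation.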

[1] = tested on: Eotaxin-3 (CCL26) release; test: Human Whole Blood Eotaxin-3 Assay (IL-4 stimulated); type: cell-based; settings: Homo sapiens; geometric mean across assay runs and compound batches; EC50 provided for test compounds with >80% Emax
In short: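 Lithium-heparin human whole blood preincubated 2 h at 37 °C with compounds (4-fold dilutions, triplicate, 0.5% DMSO final). Then stimulated with 400 pM final recombinant human IL-4 for 48 h. Eotaxin-3 in supernatant quantified by MSD immunoassay.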

| DC50 (STAT6) | EC50 [1] | Emax (STAT6; HeLa, maximal STAT6 degradation) | Structure (SMILES) |
| --- | --- | --- | --- |
| 3.8 nM | 9 nM | – | CNc1ccn(-c2ccnc3c2cc([C@H](C)N2CC=C(c4c(F)cc(C(=O)N5CCC(CN6CCN(c7ccc(NC8CCC(=O)NC8=O)cc7F)CC6)CC5)cc4F)CC2)n3C)c(=O)c1 (stereo partly drawn) [Example 2g104, 3-((4-(4-((1-(3,5-difluoro-4-(1-((S)-1-(1-methyl-4-(4-(methylamino)-2-oxopyridin-1(2H)-yl)-1H-pyrrolo[2,3-b]pyridin-2-yl)ethyl)-1,2,3,6-tetrahydropyridin-4-yl)benzo-yl)piperidin-4-yl)methyl)-piperazin-1-yl)-3-fluorophen-yl)amino)piperidine-2,6-dione] |
| 5.7 nM | 22.1 nM | – | C[C@@H](c1cc2c(-n3ccc4c(c3=O)CCN4)ccnc2n1C)N1CCC(c2ccc(C(=O)N3CCC(CN4CCN(c5ccc(N[C@H]6CCC(=O)NC6=O)cc5F)CC4)CC3)cc2)CC1 (single isomer, unassigned) [Example 2c36] |
| 1.5 nM | 0.9 nM | – | CNc1ccn(-c2ccnc3c2cc([C@H](C)N2CC=C(c4c(C)cc(C(=O)N5CCn6nc(CC7(O)CCN(c8ccc(NC9CCC(=O)NC9=O)cc8F)CC7)cc6C5)cc4F)CC2)n3C)c(=O)c1 (stereo partly drawn) [Example 2g26, 3-((3-fluoro-4-(4-((5-(3-fluoro-5-methyl-4-(1-((S)-1-(1-methyl-4-(4-(methyl-amino)-2-oxopyridin-1(2H)-yl)-1H-pyrrolo[2,3-b]pyridin-2-yl)ethyl)-1,2,3,6-tetrahydro-pyridin-4-yl)benzoyl)-4,5,6,7-tetrahydropyrazolo[1,5-a]pyr-azin-2-yl)methyl)-4-hydroxy-piperidin-1-yl)phenyl)amino)-piperidine-2,6-dione] |
| 15.7 nM | 64.6 nM | – | CNc1ccn(-c2ccnc3c2cc([C@H](C)N2CCC(c4c(C)cc(C(=O)N5CCC(CN6CCN(c7ccc(NC8CCC(=O)NC8=O)cc7F)CC6)CC5)cc4F)CC2)n3C)c(=O)c1 (stereo partly drawn) [Example 2g43, 3-((3-fluoro-4-(4-((1-(3-fluoro-5-methyl-4-(1-((S)-1-(1-methyl-4-(2-(methyl-amino)-2-oxopyridin-1(2H)-yl)-1H-pyrrolo[2,3-b]pyridin-2-yl)ethyl)piperidin-4-yl)-benzoyl)piperidin-4-yl)meth-yl)piperazin-1-yl)phenyl)-amino)piperidine-2,6-dione] |
| – | 15.7 nM | 70 to 80% | C[C@@H](c1cc2c(-n3ccc4c(c3=O)CCN4)ccnc2n1C)N1CCC(c2ccc(C(=O)N3CCC(CN4CCN(c5ccc(NC6CCC(=O)NC6=O)cc5F)CC4)CC3)cc2)CC1 (stereo partly drawn) [Example 2c29, 3-((3-fluoro-4-(4-((1-(4-(1-((S)-1-(1-methyl-4-(4-oxo-1,2,3,4-tetrahydro-5H-pyr-rolo[3,2-c]pyridin-5-yl)-1H-pyrrolo[2,3-b]pyridin-2-yl)-ethyl)piperidin-4-yl)benzoyl)-piperidin-4-yl)methyl)piper-azin-1-yl)phenyl)amino)piper-idine-2,6-dione] |
| 6.9 nM | 16.7 nM | – | CNc1ccn(-c2ccnc3c2cc([C@H](C)N2CC=C(c4c(C)cc(C(=O)N5CCC(CN6CCN(c7ccc(N[C@H]8CCC(=O)NC8=O)cc7F)C[C@@H]6C)CC5)cc4F)CC2)n3C)c(=O)c1 (single isomer, unassigned) [Example 2g98] |
| 0.3 nM | 0.5 nM | – | CNc1ccn(-c2ccnc3c2cc([C@H](C)N2CC=C(c4c(C)cc(C(=O)N5CCn6nc(CN7CCC(c8ccc(NC9CCC(=O)NC9=O)c(OC)c8)CC7)cc6C5)cc4F)CC2)n3C)c(=O)c1 (stereo partly drawn) [Example 2g116, 3-((4-(1-((5-(3-fluoro-5-meth-yl-4-(1-((S)-1-(1-methyl-4-(4-(methylamino)-2-oxopyridin-1(2H)-yl)-1H-pyrrolo[2,3-b]pyridin-2-yl)ethyl)-1,2,3,6-tetrahydropyridin-4-yl)benzo-yl)-4,5,6,7-tetrahydropyrazolo [1,5-a]pyrazin-2-l)methyl)-piperidin-4-yl)-2-methoxy-phenyl)amino)-piperidine-2,6-dione] |
